# In patent US10822317B2, “Methods and compositions for wound healing” (QBiotics Limited, priority 2013, dated 2020):
# Assays:
# [1] = system: human neonatal fibroblasts; experiment: Scratch closure, human neonatal fibroblasts, Method 2; format: cell-based; details: 200 ng/mL
# Experimental: The ability of early. passage neonatal foreskin fibroblasts (NFF) cultured in RPMI 1640-10% foetal calf serum to migrate across a scratch wound made in a confluent monolayer following treatment with purified compounds or plant extracts was determined using one or more of the following three methods.
# Cells were seeded in 6 mm wells (96-well plates) or 16 mm (24-well plates), with 2 to 6 replicate wells/dilution, and treated as in Method 1. Immediately after treatment, the scratch edges were outlined on the underside of the well with a fine point felt pen. After fixing and staining, migration was assessed under the microscope with the aid of a graticule, scoring migration as 0, 25, 50, 75 or 100% (total closure) of the initial width. Accelerated wound closure was considered to be significant if mean quartile of replicates was […] that of untreated controls (p<0.05, t-test). In addition, “wound” areas were created by seeding cells in the presence of 3 mm stainless steel pins (96-well plate), or by inserting flat-edged Teflon rings. These devices were removed after overnight incubation of the NFF cells.
# [2] = system: immortalised human keratinocyte cells (HaCaT); experiment: Scratch repopulation and closure with HaCaT; format: cell-based; details: 48 hours, ± standard error
# Experimental: The ability of immortalised human keratinocyte cells (HaCaT) to migrate across a scratch wound made in a confluent monolayer following treatment with either Compound 1 or Compound 37 was determined by the following method.
# Trypsinised HaCaT cells were seeded at a cell density of 7.4×10^4 cells/mL in 24-well BD Falcon flat-bottomed, tissue culture plates (VWR International, UK) in 1 mL Dulbecco's Modified Eagle Medium (DMEM), supplemented with L-glutamine (2 mM), antibiotics (100 U/mL penicillin G sodium, 100 μg/mL streptomycin sulphate and 0.25 μg/mL amphotericin B); and 10% foetal calf serum (all Invitrogen Ltd., UK) to give a cell density of 7.4×10^4 cells seeded in each well. The cells were then maintained at 37° C. in a 5% CO2/95% air atmosphere overnight. The following morning, the 10% foetal calf serum-containing DMEM was replaced with serum-free DMEM and the HaCaT cells were subsequently serum-starved in DMEM for 48 hr.
# After 48 hr, the serum-free DMEM was removed and a single scratch ‘wound’ made with a sterile pipette across each cell layer. Following washing twice in 1 mL PBS, Compound 1- or Compound 37-containing medium (1 mL) was added to each well. This medium consisted of DMEM, supplemented with L-glutamine (2 mM), antibiotics (as above) and 1% foetal calf serum, in addition to Compound 1 or Compound 37 at final concentrations of 0, 0.001, 0.01, 0.1, 1.0, 10 or 100 μg/mL. There were three replicate wells per concentration for each compound.
# The HaCaT cultures were maintained at 37° C. in a 5% CO2/95% air atmosphere and the repopulation of the denuded ‘wound’ areas monitored by Time-Lapse Confocal Microscopy (Leica TCS SP5 Confocal Microscope; Leica Microsystems UK Ltd., UK) at 100× magnification, with digital images captured at fixed positions every 20 min over a 48 h period. The digital image sequences were exported and prepared as .avi movie files, using LAS AF Software (Leica Microsystems). The rates of HaCaT wound closure in vitro were quantified using ImageJ Software (ImageJ 1.37v; http://rsb.info.nih.gov/ij/). The data was analysed by One Way Analysis of Variance with post-test Tukey analysis. Each experiment was performed on 3 separate occasions.
# [3] = system: wounds following necrosis and sloughing of spontaneous tumours; experiment: Resolution of wounds after sloughing of spontaneous tumours treated by intratumoural injection, feline; format: in vivo
# Experimental: Veterinary clinical data on speed of resolution of wounds that formed following necrosis and sloughing of spontaneous tumours that had been treated by intratumoural injection of Compound 1 (30% 1,2 propanediol formulation at either 0.5 or 1.0 mg/mL concentration) in twenty-four companion animals are summarised in Table 17.
# Note that all wounds were managed as open wounds and no bandaging, dressings, lotions or concomitant medications were used in any of these cases.
structure (smiles),measurement,setting,value
"CC=C(C)C(=O)OC1C(C)C2(O)C(C3OC3(CO)C(O)C3(O)C(=O)C(C)=CC32)C2C(C)(C)C12OC(=O)C(C)CC (stereo not shown) [Compound 1, 12-tigloyl-13-(2-methylbutanoyl)-6,7-epoxy-4,5,9,12,13,20-hexahydroxy-1-tigliaen-3-one]",% closure compared to control,[1],180%
same,% of scratch wound area remaining open after treatment,[2]; 0.001 μg/ml,8.6 ± 9.4%
same,% of scratch wound area remaining open after treatment,[2]; 0.01 μg/ml,19.7 ± 9.3%
same,% of scratch wound area remaining open after treatment,[2]; 0.1 μg/ml,21.4 ± 5.8%
same,% of scratch wound area remaining open after treatment,[2]; 1.0 μg/ml,35.4 ± 7.9%
same,% of scratch wound area remaining open after treatment,[2]; 10 μg/ml,45.5 ± 7.3%
same,"No. of cats: Tissue deficit at wound site, Minor",[3]; 5 to 10% tissue deficit across the original wound area,0
same,"No. of cats: Tissue deficit at wound site, Nil or minimal",[3]; <5% tissue deficit across the original wound area,3
same,"No. of cats: Tissue deficit at wound site, Substantial",[3]; >10% tissue deficit across the original wound area,0
same,Average days from tumour slough to wound closure,"[3]; Feline, wound size class 0.25 to 12 cm^2, 3 cases",17 ± 10 days
same,"No. of cats: Hair regrowth on wound area, Sparse",[3]; Hair covers <50% of original wound area,0
same,"No. of cats: Hair regrowth on wound area, Partial",[3]; Hair covers >50% of original wound area,1
same,"No. of cats: Hair regrowth on wound area, Full",[3]; Hair covers >95% of original wound area,2
same,"No. of cats: Scarring & skin thickening, Minor",[3]; Localised scar covering <10% of original wound area,0
same,"No. of cats: Scarring & skin thickening, Substantial",[3]; Scarring covering >10% of original wound area,0
same,"No. of cats: Scarring & skin thickening, Nil or minimal",[3]; Scarring not obvious visually or by touch,3
same,"No. of cats: Change in hair colour, No",[3]; healed wound site,2
same,"No. of cats: Change in hair colour, Yes",[3]; healed wound site,1
same,"No. of cats: Skin pigmentation, Hyperpigmentation",[3]; healed wound site,0
same,"No. of cats: Skin pigmentation, Hypopigmentation",[3]; healed wound site,0
same,"No. of cats: Skin pigmentation, Normal",[3]; healed wound site,3
same,"No. of cats: Skin pigmentation, Patchy",[3]; healed wound site,0
